Patent US4416826A, “Peresters and use thereof” (priority 1980, dated 1983)

Assays:
[1] = Photodecomposition kinetics and quantum yields at 366 nm (benzophenone-benzhydrol actinometry); assay type: physicochemical
Method: Kinetic studies are carried out in degassed, sealed tubes by irradiating them with 366 nm light obtained from a Hanovia medium-pressure mercury lamp by combining the Corning Filters 0-52 and 7-60. The decompositions of the […] followed by the carbonyl IR absorption adjacent to the peroxide group (O=COO--) (1770 cm^-1). Benzophenone-benzhydrol redox actinometry are used throughout the study. In particular, a solution of […] (2 mL) in the appropriate solvent is placed in Pyrex tubes (12-mm diameter), degassed, and sealed under vacuum. Three cycles of freeze-thaw removes dissolved oxygen. The tubes are placed in a merry-go-round around a water-cooled light source, removed at different predetermined intervals, and kept frozen in liquid nitrogen in the dark until analysis is done. The estimation of […] done by quantitative IR, monitoring the carbonyl peak at 1770 cm^-1. […] Absorbance is measured with a 0.1 mm NaCl cell against solvent reference. With every run, two tubes containing actinometric solutions (benzophenone (0.1 M) and benzhydrol (0.05 M) in benzene are irradiated.

[2] = Stern-Volmer triplet quenching with naphthalene; assay type: physicochemical; settings: CCl4
Excerpt: All the peresters give linear Stern-Volmer plots when naphthalene is used as triplet quencher.

[3] = Thermal stability / thermal decomposition of peresters in the dark; assay type: physicochemical; settings: 110° C., chlorobenzene, dark; initial concn Ia 5.01, Ib 5.15, Ic 5.19 × 10^-2 M
[4] = Polymerization of methyl methacrylate; settings: initiator 5 × 10^-2 M, [MMA] = 3.1 M, 25° C., benzene
Method: (§1) Commercial methyl methacrylate monomer is washed three times with 2% NaOH solution to remove stabilizer. It is then washed with distilled water three times, dried with molecular sieves, and distilled under vacuum before use. Polymerization solutions are prepared in cylindrical tubes which are degassed and sealed. The amount of polymer formed is determined by precipitating the polymer with an excess of methanol, washing with methanol, and filtering through fine sintered crucibles (previously weighed) followed by drying in a vacuum oven. The irradiation condition is the same as that in the decomposition rate example hereinabove.

[5] = Relative quantum yield of initiator decomposition in presence of monomer (IR at 1770 cm^-1); assay type: physicochemical; settings: for relative quantum yield φrel of decomposition: benzene, initiator 2 × 10^-2 M
Method: (§2) Commercial styrene is washed three times with ice cold 2% NaOH solution followed by washing (four times) with distilled water. The styrene is dried over anhydrous CaCl2 and distilled under vacuum before use. The middle fraction of the distillate is used for polymerization. Solvents are purified by conventional means and distilled under N2 atmosphere.
(§3) The irradiations are carried out in degassed (three cycles of freeze-thaw under high vacuum) sealed 15-mm Pyrex tubes. The tubes are placed in a merry-go-round with a filtered UV source of 366 nm at the center and the yield of polymer is measured (below 10% conversion) gravimetrically. In all of the cases, tubes of the same size and same volume of solution are used. Number-average molecular weights of the purified polymers are determined by viscometry in a benzene solution. After the polymerization, an aliquot of 0.5 ml from each reaction tube is placed in 2-ml volumetric flasks. The solvent and excess monomer are evaporated under high vacuum for several hours. The remaining flask contents are dissolved in 0.5 ml of benzene or chloroform and the polymer is precipitated by adding 0.5 ml of n-hexane. The solution then is centrifuged and the IR of the centrifugate is measured to determine undecomposed perester. All of the above procedures are carried out as far as possible in the dark. The light intensity is measured by benzophenone-benzhydrol actinometry and observed to be Io =6.56×10^17 quanta/min on the average. The temperature of the tubes is maintained at 30° C.
The decomposition of the initiator employed is followed by IR at 1770 cm^-1 (caused by the carbonyl adjacent to the peroxy group) against an appropriate solvent blank. The initiators employed are .rho.-benzoylperoxybenzoic acid tert-butylester (Ia) and prior art benzophenone peroxide. In addition, the above procedure is repeated except that methyl methacrylate is employed in place of styrene. Table IX below illustrates the relative quantum yield for the decomposition of the initiators in the recited amounts of monomers, assuming that the quantum yield for the decomposition of the perester and peroxide in the absence of any monomer is one.

[6] = as above; assay type: physicochemical; settings: benzene, initiator 2 × 10^-2 M
Method: as §1
The irradiations are carried out in degassed (three cycles of freeze-thaw under high vacuum) sealed 15-mm Pyrex tubes. The tubes are placed in a merry-go-round with a filtered UV source of 366 nm at the center and the yield of polymer is measured (below 10% conversion) gravimetrically. In all of the cases, tubes of the same size and same volume of solution are used. Number-average molecular weights of the purified polymers are determined by viscometry in a benzene solution. […] The solution then is centrifuged and the IR of the centrifugate is measured to determine undecomposed perester. […] The light intensity is measured by benzophenone-benzhydrol actinometry and observed to be Io =6.56×10^17 quanta/min on the average. […]

[7] = Photopolymerization of styrene, radical efficiency
Method: as §2, §3
The efficiency of the radicals to initiate polymerization, f, in the absence of any appreciable amount of chain transfer, can be defined as [formula] assuming bimolecular termination by the combination of two growing chains only [formula] whereas kd =rate of decomposition of perester in mol/liter sec. in the absence of monomer (a function of light intensity).

[8] = benzene, [I] 0.31 × 10^-3 M, [M] 3.5 M
[9] = benzene, [I] 0.63 × 10^-3 M, [M] 3.5 M
[10] = benzene, [I] 1.15 × 10^-3 M, [M] 3.5 M
[11] = benzene, [I] 2.52 × 10^-3 M, [M] 3.5 M
[12] = benzene, [I] 5.03 × 10^-3 M, [M] 3.5 M
[13] = benzene, [I] 8.05 × 10^-3 M, [M] 3.5 M
[14] = benzene, [I] 10.0 × 10^-3 M, [M] 2.0 M
[15] = benzene, [I] 10.0 × 10^-3 M, [M] 3.5 M
[16] = benzene, [I] 10.0 × 10^-3 M, [M] 5.0 M
[17] = chloroform, [I] 1.11 × 10^-3 M, [M] 4.33 M
[18] = chloroform, [I] 2.28 × 10^-3 M, [M] 4.33 M
[19] = chloroform, [I] 5.14 × 10^-3 M, [M] 4.33 M
[20] = chloroform, [I] 9.92 × 10^-3 M, [M] 4.33 M

## CC(C)(C)OOC(=O)c1ccc(C(=O)c2ccccc2)cc1 [Ia, t-Butyl-4-Benzoylperbenzoate]
[1]; 366 nm radiation, room temperature
  photodecomposition behaviour, in words: decomposes smoothly at room temperature
[1]; C6 H6, 25° C., 366 nm, I = 6.56 × 10^17 quanta/min, 5.03-6.06 × 10^-2 M, given as kd × 10^4
  apparent first-order photodecomposition rate constant kd × 10^4: 1.84 s^-1
[1]; C6 H6, 366 nm, perester 5.03-6.06 × 10^-2 M
  quantum yield of decomposition (φ of dec): 0.94
[1]; CCl4, 3.56 × 10^-2 M, TBP 3.76 × 10^-2 M
  quantum yield of decomposition (φ of dec): 0.74
[1]; CCl4, 3.56 × 10^-2 M, no TBP
  quantum yield of decomposition (φ of dec): 0.90
[1]; CCl4, 4.78 × 10^-2 M, TBP 5.01 × 10^-2 M
  quantum yield of decomposition (φ of dec): 0.79
[1]; CCl4, 7.16 × 10^-2 M, no TBP
  quantum yield of decomposition (φ of dec): 1.05
[1]; methanol, TBP 5.08 × 10^-2 M, Ia 5.38, Ib 6.15 × 10^-2 M
  quantum yield of decomposition (φ of dec): 0.64
[1]; methanol, no TBP, Ia 5.38, Ib 6.15, Ic 5.10 × 10^-2 M
  quantum yield of decomposition (φ of dec): 2.77
[2]
  quenching constant kq τ: 7.5
[3]
  thermal 1st order dec rate × 10^5: 2.88 M × 10^5 s^-1
  thermal half-life t1/2: 6.7 h
[4]
  Rate of Polymerization (Rp) of MMA, Rp × 10^5: 8.33 mL^-1 s^-1
[5]
  effect of styrene on quantum yield of decomposition, in words: Styrene drastically reduces the quantum yield of decomposition
[5]; styrene 1.09 M
  relative quantum yield φrel of decomposition: 0.25
[5]; styrene 2.19 M
  relative quantum yield φrel of decomposition: 0.20
[5]; styrene 3.28 M
  relative quantum yield φrel of decomposition: 0.14
[5]; styrene 4.37 M
  relative quantum yield φrel of decomposition: 0.12
[5]; styrene 8.73 M
  relative quantum yield φrel of decomposition: very low
[6]; methyl methacrylate 2.34 M
  relative quantum yield φrel of decomposition: 0.88
[6]; methyl methacrylate 4.68 M
  relative quantum yield φrel of decomposition: 0.80
[7]
  radical efficiency, in words: approaches unity at low initiator concentrations
[7]; Table X footnote
  kd, rate of decomposition of perester in the absence of monomer: 0.000512 mol/L/s
[7]; [8]
  Average degree of polymerization: 320.4
  Radical efficiency f: 0.92
  Rp × 10^5: 0.65 mole/liter sec
  φrel: 0.14
[7]; [9]
  Average degree of polymerization: 166.7
  Radical efficiency f: 1.21
  Rp × 10^5: 0.92 mole/liter sec
  φrel: 0.14
[7]; [10]
  Average degree of polymerization: 155.5
  Radical efficiency f: 1.00
  Rp × 10^5: 1.29 mole/liter sec
  φrel: 0.14
[7]; [11]
  Average degree of polymerization: 102.8
  Radical efficiency f: 0.79
  Rp × 10^5: 1.47 mole/liter sec
  φrel: 0.14
[7]; [12]
  Average degree of polymerization: 85.7
  Radical efficiency f: 0.56
  Rp × 10^5: 1.72 mole/liter sec
  φrel: 0.14
[7]; [13]
  Average degree of polymerization: 77.2
  Radical efficiency f: 0.41
  Rp × 10^5: 1.83 mole/liter sec
  φrel: 0.14
[7]; [14]
  Average degree of polymerization: 48.0
  Radical efficiency f: 0.16
  Rp × 10^5: 0.95 mole/liter sec
  φrel: 0.25
[7]; [15]
  Average degree of polymerization: 137.2
  Radical efficiency f: 0.15
  Rp × 10^5: 1.50 mole/liter sec
  φrel: 0.14
[7]; [16]
  Average degree of polymerization: 219.2
  Radical efficiency f: 0.16
  Rp × 10^5: 2.08 mole/liter sec
  φrel: 0.12
[7]; chloroform, [I] 0.14 × 10^-3 M, [M] not given
  φrel: 1.32
[7]; [17]
  Average degree of polymerization: 186.0
  Radical efficiency f: 0.89
  Rp × 10^5: 1.32 mole/liter sec
  φrel: 0.14
[7]; [18]
  Average degree of polymerization: 130.0
  Radical efficiency f: 0.86
  Rp × 10^5: 1.83 mole/liter sec
[7]; [19]
  Average degree of polymerization: 102.9
  Radical efficiency f: 0.37
  Rp × 10^5: 2.01 mole/liter sec
[7]; [20]
  Average degree of polymerization: 80.5
  Radical efficiency f: 0.40
  Rp × 10^5: 2.29 mole/liter sec
[7]; same concentration of initiators and monomer
  rate of polymerization of styrene, in words: almost double
